Results published in patent US20200340007A1, “CLALS PROTEIN, ITS CODING GENE AND USE IN PREDICTING THE HERBICIDE RESISTANCE OF WATERMELON” (BEIJING ACADEMY OF AGRICULTURE AND FORESTRY SCIENCES, priority 2018, published 2020).

Legend:
[1] = system: P190L heterozygous mutant strain seedlings; assay: Identification of herbicide resistance spectrum; format: in vivo, watermelon; details: leaf spray, tribenuron 15, halosulfuron 33.75, bensulfuron 22.5, pyrazosulfuron 24, flumetsulam 48, flucarbazone 31.5 g ai/ha, 7 days
Description: (§1) Watermelon seeds to be tested are seeds of non-transgenic watermelon, seeds of P190L homozygous mutant strain, seeds of P190S homozygous mutant strain, seeds of P190L heterozygous mutant strain, or seeds of P190S heterozygous mutant strain.
(§2) The experiment was repeated three times, and the steps for each are as follows:
(§3) 1. Planting 5 watermelon seeds to be tested in the field and culturing routinely for 10 days until the cotyledons are flattened to obtain the watermelon seedlings to be tested.
(§4) 2. After step 1 is completed, taking the watermelon seedlings to be tested and spraying the leaves with tribenuron, halosulfuron, bensulfuron, pyrazosulfuron, flumetsulam, and flucarbazone, respectively (spraying dose of tribenuron, halosulfuron, bensulfuron, pyrazosulfuron, flumetsulam, and flucarbazone were 15, 33.75, 22.5, 24, 48, and 31.5 g ai/ha; g represents gram, ai represents the active ingredient, ha represents hectare), and then culturing for 7 days to observe the growth status of the watermelon seedling to be tested.
(§5) 3. After step 1 is completed, taking the watermelon seedlings to be tested, spraying the leaves with the same volume of water as the herbicide in step 2, and then culturing for 7 days, to observe the growth status of the watermelon seedlings as a control.

[2] = system: P190L homozygous mutant strain seedlings; assay: Identification of herbicide resistance spectrum; format: in vivo, watermelon; details: leaf spray, tribenuron 15, halosulfuron 33.75, bensulfuron 22.5, pyrazosulfuron 24, flumetsulam 48, flucarbazone 31.5 g ai/ha, 7 days
Description: as §1, §2, §3, §4, §5

[3] = system: P190S heterozygous mutant strain seedlings; assay: Identification of herbicide resistance spectrum; format: in vivo, watermelon; details: leaf spray, tribenuron 15, halosulfuron 33.75, bensulfuron 22.5, pyrazosulfuron 24, flumetsulam 48, flucarbazone 31.5 g ai/ha, 7 days
Description: as §1, §2, §3, §4, §5

[4] = system: P190S homozygous mutant strain seedlings; assay: Identification of herbicide resistance spectrum; format: in vivo, watermelon; details: leaf spray, tribenuron 15, halosulfuron 33.75, bensulfuron 22.5, pyrazosulfuron 24, flumetsulam 48, flucarbazone 31.5 g ai/ha, 7 days
Description: as §1, §2, §3, §4, §5

[5] = system: non-transgenic watermelon seedlings; assay: Identification of resistance to the herbicide tribenuron, seedlings sprayed in the field; format: in vivo; details: leaf spray 17 g ai/ha
Description: (§6) The watermelon seeds to be tested are seeds of non-transgenic watermelon, seeds of P190L homozygous mutant strains, seeds of P190S homozygous mutant strains, seeds of P190L heterozygote mutant strains, or seeds of P190S heterozygote mutant strains.
(§7) The experiment was repeated three times, and the steps for each were as follows:
(§8) 1. Planting 20 watermelon seeds to be tested in the field and culturing routinely to obtain watermelon seedlings to be tested in a two-leaf one-heart period.
(§9) 2. After step 1 is completed, taking the watermelon seedlings to be tested, spraying the leaves with tribenuron (the spraying dose is 17 g ai/ha; g represents gram, ai represents the active ingredient, and ha represents hectare), and then culturing routinely for 7 days to observe the growth status of the watermelon seedlings to be tested.

[6] = system: P190L heterozygous mutant strain seedlings; assay: as above; format: in vivo, watermelon; details: leaf spray 17 g ai/ha, observed 7 days
Description: as §6, §7, §8, §9

[7] = system: P190L homozygous mutant strain seedlings; assay: as above; format: in vivo, watermelon; details: leaf spray 17 g ai/ha
Description: as §6, §7, §8, §9

[8] = system: P190S heterozygous mutant strain seedlings; assay: as above; format: in vivo, watermelon; details: leaf spray 17 g ai/ha, observed 7 days
Description: as §6, §7, §8, §9

[9] = system: P190S homozygous mutant strain seedlings; assay: as above; format: in vivo, watermelon; details: leaf spray 17 g ai/ha
Description: as §6, §7, §8, §9

COc1cc(OC)nc(NC(=O)NS(=O)(=O)Cc2ccccc2C(=O)O)n1 [bensulfuron]
resistance of seedlings to the herbicide compared with non-transgenic watermelon [1]: obvious resistance | resistance of seedlings to the herbicide compared with non-transgenic watermelon [2]: obvious resistance | resistance of seedlings to the herbicide compared with non-transgenic watermelon [3]: obvious resistance | resistance of seedlings to the herbicide compared with non-transgenic watermelon [4]: obvious resistance

COc1nn(C(=O)NS(=O)(=O)c2ccccc2OC(F)(F)F)c(=O)n1C [flucarbazone]
resistance of seedlings to the herbicide compared with non-transgenic watermelon [1]: obvious resistance | resistance of seedlings to the herbicide compared with non-transgenic watermelon [2]: obvious resistance | resistance of seedlings to the herbicide compared with non-transgenic watermelon [3]: obvious resistance | resistance of seedlings to the herbicide compared with non-transgenic watermelon [4]: obvious resistance

Cc1ccn2nc(S(=O)(=O)Nc3c(F)cccc3F)nc2n1 [flumetsulam]
resistance of seedlings to the herbicide compared with non-transgenic watermelon [1]: obvious resistance | resistance of seedlings to the herbicide compared with non-transgenic watermelon [2]: obvious resistance | resistance of seedlings to the herbicide compared with non-transgenic watermelon [3]: obvious resistance | resistance of seedlings to the herbicide compared with non-transgenic watermelon [4]: obvious resistance

COc1cc(OC)nc(NC(=O)NS(=O)(=O)c2c(C(=O)O)c(Cl)nn2C)n1 [halosulfuron]
resistance of seedlings to the herbicide compared with non-transgenic watermelon [1]: obvious resistance | resistance of seedlings to the herbicide compared with non-transgenic watermelon [2]: obvious resistance | resistance of seedlings to the herbicide compared with non-transgenic watermelon [3]: obvious resistance | resistance of seedlings to the herbicide compared with non-transgenic watermelon [4]: obvious resistance

COc1cc(OC)nc(NC(=O)NS(=O)(=O)c2c(C(=O)O)cnn2C)n1 [pyrazosulfuron]
resistance of seedlings to the herbicide compared with non-transgenic watermelon [1]: obvious resistance | resistance of seedlings to the herbicide compared with non-transgenic watermelon [2]: obvious resistance | resistance of seedlings to the herbicide compared with non-transgenic watermelon [3]: obvious resistance | resistance of seedlings to the herbicide compared with non-transgenic watermelon [4]: obvious resistance

COc1nc(C)nc(N(C)C(=O)NS(=O)(=O)c2ccccc2C(=O)O)n1 [tribenuron]
time to death of seedlings after spraying [5]: 3 to 7 days | growth status of the watermelon seedlings after spraying ([5]; two-leaf one-heart period, observed 7 days): died quickly | growth status of the watermelon seedlings after spraying [6]: grew normally | growth after spraying compared with seedlings of the heterozygous mutant strains ([7]; 7 days): grew better | growth status of the watermelon seedlings after spraying ([7]; observed 7 days): grew normally | growth status of the watermelon seedlings after spraying [8]: grew normally | growth after spraying compared with seedlings of the heterozygous mutant strains ([9]; 7 days): grew better | growth status of the watermelon seedlings after spraying ([9]; observed 7 days): grew normally | resistance of seedlings to the herbicide compared with non-transgenic watermelon [1]: obvious resistance | resistance of seedlings to the herbicide compared with non-transgenic watermelon [2]: obvious resistance | resistance of seedlings to the herbicide compared with non-transgenic watermelon [3]: obvious resistance | resistance of seedlings to the herbicide compared with non-transgenic watermelon [4]: obvious resistance
